In patent publication US12540150B1, “Fluorogenic probe using a Mislow-Evans rearrangement for real-time imaging of hydrogen peroxide” (University of Pittsburgh—Of the Commonwealth System of …, priority 2020, dated 2026):
Values joined by “and” are separate entries in the source; they are usually repeats but may differ in a detail not shown here. Identical values can stand only once.

What was measured:
[1] = Kinetics of the reaction of 1 with H2O2
[2] = Fluorescence response of 1 with increasing concentrations of H2O2; details: 0-159 μM H2O2 solutions, phosphate pH 7 buffer, 25° C., 20 min
Description: To verify that 1 could quantitatively measure H2O2 concentrations, 1 was incubated with increasing concentrations of H2O2. A solution of 0-159 μM H2O2 in 5:95 MeCN/50 mM phosphate pH 7 buffer (180 μL) was added to the wells of a black 96-well plate. A solution of 100 μM 1 in MeCN (20 μL) was then added to the wells. The solutions were allowed to incubate at 25° C. for 20 min before the fluorescence was measured.

[3] = Selectivity of 1: reaction with NO2^−; details: for Fluorescence: change over first 15 min
Description: It was then sought to determine whether RNS would react with 1 to produce fluorescence. The probe 1 was first exposed to NO2^− at various concentrations. NaNO2 (97.0 mg) was dissolved in ultrapure water (2.00 mL). […] A solution of 100 μM 1 in ethanol (20 μL) was added to 5:95 methanol/50 mM phosphate pH 7 buffer (160 μL). The NaNO2 or H2O2 solutions (20 μL) were added to the solution containing 1 and the fluorescence intensity was measured immediately and again after incubation at 25° C. for 15 min. The fluorescence change over the first 15 min was reported for NO2^− in FIG. 20 and Table 11.

[4] = Stability of 1 under ambient conditions by 1H NMR; type: physicochemical; details: room temperature, in air
Source text: Since organic selenides are prone to oxidation in air, the stability of 1 under ambient conditions was investigated. To study the stability of 1, the ^1H NMR spectra of 1 in DMSO-d6 were obtained at specified intervals (days 1, 7, 14, 21, 30 and 60). The solution was left at room temperature and in air throughout the entire period.
[drawing 26] were observed. […] Even so, the compound was quite resistant to oxidative decomposition up to 60 days as manifested by the presence of only less than 10% acrolein.

RAW cells = assay: Imaging of endogenous H2O2 upon ionomycin stimulation in RAW cells; type: cell-based
Source text: After detecting exogenously added H2O2 in cells, the focus shifted to more biologically relevant, endogenous H2O2. It was attempted to monitor endogenous H2O2 production upon stimulation with ionomycin in RAW cells. […] In contrast, with probe 1, a significant response was observed within 30 s after the addition of ionomycin relative to the baseline fluorescence (FIG. 24B-C) and peaked at 48 s.

zebrafish = assay: Zebrafish tail wound-healing model imaging of H2O2; type: in vivo; details: three-day post-fertilization zebrafish embryos, 1 mM 1 for 2 h
Source text: H2O2 has been recognized as a critical signaling molecule for the recruitment of immune cells for wound regeneration. To date, only genetically encoded protein-based fluorescent probes have been able to illuminate the spatiotemporal dynamics of H2O2 for wound healing models in zebrafish. It was hypothesized that our method might be rapid enough to match the protein-based imaging in vivo. As a platform to test this hypothesis, 1 was applied to image a zebrafish tail wound-healing model.
Three-day post-fertilization zebrafish embryos were removed from their chorion and allowed to swim in 1 mM 1 for 2 h (0.1% v/v DMSO), leading to effective dye loading. Following this, the fish were anesthetized and mounted in agar. The tail fins were clipped with a razor blade.
Fluorescence images were obtained every 60 s for 60 min using an inverted Nikon TiE fluorescent microscope (Nikon Inc., Melville, NY) equipped with a 20× 0.75 NA lens and NIS Elements Software. The sample was excited using the 470 nm line of a Lumencor diode-pumped light engine (SpectraX, Lumencor Inc., Beaverton OR), and the fluorescence signals were detected using an ET-GFP filter set (Chroma Technology Corp) and ORCA-Flash 4.0 sCMOS camera (HAMAMATSU Corporation, Bridgewater, NJ).

Compound: Oc1ccc2c(c1)Oc1cc(O/C=C/C[Se]c3ccccc3)ccc1[C@@]21OCc2ccccc21 [Compound 1, (S,E)-6′-((3-(Phenylselanyl)prop-1-en-1-yl)oxy)-3H-spiro[isobenzofuran-1,9′-xanthen]-3′-ol]
- rate of reaction with H2O2 relative to boronate-based probes [1]: seven times faster
- second order rate constant k ([1]; 5% MeCN in pH 7.5 HEPES buffer 50 mM, [1]=1.7 μM): 9.82 ± 1.11 M⁻¹ s⁻¹
- Slope k′ ([1]; [H2O2] 0.625 mM): 0.00251 s⁻¹
- Slope k′ ([1]; [H2O2] 1.25 mM): 0.01359 s⁻¹
- Slope k′ ([1]; [H2O2] 2.5 mM): 0.02432 s⁻¹
- F-F0 (515 nm) ([1]; [H2O2] = 0.625 mM, 30 s): 145,691 and 101,161 and 83,026
- [1] ([1]; [H2O2] = 0.625 mM, 30 s): 1.3453 µM and 1.4596 µM and 1.5061 µM
- F-F0 (515 nm) ([1]; [H2O2] = 0.625 mM, 90 s): 220,196 and 277,036 and 236,883
- [1] ([1]; [H2O2] = 0.625 mM, 90 s): 1.1541 µM and 1.0082 µM and 1.1113 µM
- F-F0 (515 nm) ([1]; [H2O2] = 0.625 mM, 150 s): 301,900 and 391,059 and 348,470
- [1] ([1]; [H2O2] = 0.625 mM, 150 s): 0.9444 µM and 0.7157 µM and 0.8249 µM
- F-F0 (515 nm) ([1]; [H2O2] = 0.625 mM, 210 s): 355,049 and 458,596 and 422,910
- [1] ([1]; [H2O2] = 0.625 mM, 210 s): 0.8081 µM and 0.5424 µM and 0.6339 µM
- F-F0 (515 nm) ([1]; [H2O2] = 0.625 mM, 270 s): 390,358 and 499,861 and 473,964
- [1] ([1]; [H2O2] = 0.625 mM, 270 s): 0.7175 µM and 0.4365 µM and 0.5029 µM
- F-F0 (515 nm) ([1]; [H2O2] = 0.625 mM, 330 s): 421,561 and 522,358 and 509,584
- [1] ([1]; [H2O2] = 0.625 mM, 330 s): 0.6374 µM and 0.3787 µM and 0.4115 µM
- F-F0 (515 nm) ([1]; [H2O2] = 0.625 mM, 390 s): 450,025 and 534,705 and 536,252
- [1] ([1]; [H2O2] = 0.625 mM, 390 s): 0.5643 µM and 0.3470 µM and 0.3431 µM
- F-F0 (515 nm) ([1]; [H2O2] = 0.625 mM, 450 s): 477,638 and 541,922 and 555,207
- [1] ([1]; [H2O2] = 0.625 mM, 450 s): 0.4935 µM and 0.3285 µM and 0.2944 µM
- F-F0 (515 nm) ([1]; [H2O2] = 0.625 mM, 510 s): 501,767 and 546,290 and 569,868
- [1] ([1]; [H2O2] = 0.625 mM, 510 s): 0.4316 µM and 0.3173 µM and 0.2568 µM
- F-F0 (515 nm) ([1]; [H2O2] = 0.625 mM, 570 s): 524,121 and 550,122 and 581,518
- [1] ([1]; [H2O2] = 0.625 mM, 570 s): 0.3742 µM and 0.3075 µM and 0.2269 µM
- F-F0 (515 nm) ([1]; [H2O2] = 0.625 mM, 630 s): 543,908 and 551,490 and 591,076
- [1] ([1]; [H2O2] = 0.625 mM, 630 s): 0.3234 µM and 0.3040 µM and 0.2024 µM
- F-F0 (515 nm) ([1]; [H2O2] = 0.625 mM, 690 s): 559,985 and 551,741 and 599,176
- [1] ([1]; [H2O2] = 0.625 mM, 690 s): 0.2822 µM and 0.3033 µM and 0.1816 µM
- F-F0 (515 nm) ([1]; [H2O2] = 0.625 mM, 750 s): 570,897 and 553,475 and 603,780
- [1] ([1]; [H2O2] = 0.625 mM, 750 s): 0.2542 µM and 0.2989 µM and 0.1698 µM
- F-F0 (515 nm) ([1]; [H2O2] = 0.625 mM, 810 s): 580,693 and 553,568 and 609,902
- [1] ([1]; [H2O2] = 0.625 mM, 810 s): 0.2290 µM and 0.2986 µM and 0.1541 µM
- F-F0 (515 nm) ([1]; [H2O2] = 0.625 mM, 870 s): 587,536 and 552,326 and 614,108
- F-F0 (515 nm) ([1]; [H2O2] = 1.25 mM, 30 s): 255,659 and 258,915 and 225,047
- [1] ([1]; [H2O2] = 1.25 mM, 30 s): 1.0631 µM and 1.0547 µM and 1.1417 µM
- F-F0 (515 nm) ([1]; [H2O2] = 1.25 mM, 90 s): 364,712 and 517,271 and 484,926
- [1] ([1]; [H2O2] = 1.25 mM, 90 s): 0.7833 µM and 0.3918 µM and 0.4748 µM
- F-F0 (515 nm) ([1]; [H2O2] = 1.25 mM, 150 s): 463,364 and 607,290 and 590,662
- F-F0 (515 nm) ([1]; [H2O2] = 1.25 mM, 210 s): 514,663 and 641,798 and 639,332
- F-F0 (515 nm) ([1]; [H2O2] = 1.25 mM, 270 s): 549,297 and 656,229 and 660,178
- F-F0 (515 nm) ([1]; [H2O2] = 1.25 mM, 330 s): 572,635 and 661,539 and 664,254
- F-F0 (515 nm) ([1]; [H2O2] = 1.25 mM, 390 s): 589,797 and 665,178 and 666,753
- F-F0 (515 nm) ([1]; [H2O2] = 1.25 mM, 450 s): 601,493 and 663,842 and 669,367
- F-F0 (515 nm) ([1]; [H2O2] = 1.25 mM, 510 s): 606,377 and 663,608 and 673,539
- F-F0 (515 nm) ([1]; [H2O2] = 1.25 mM, 570 s): 612,207 and 662,594 and 675,671
- F-F0 (515 nm) ([1]; [H2O2] = 1.25 mM, 630 s): 614,405 and 663,947 and 677,477
- F-F0 (515 nm) ([1]; [H2O2] = 1.25 mM, 690 s): 616,203 and 663,123 and 679,640
- F-F0 (515 nm) ([1]; [H2O2] = 1.25 mM, 750 s): 616,371 and 663,595 and 679,888
- F-F0 (515 nm) ([1]; [H2O2] = 1.25 mM, 810 s): 614,783 and 663,765 and 683,016
- F-F0 (515 nm) ([1]; [H2O2] = 1.25 mM, 870 s): 614,819 and 662,173 and 685,799
- F-F0 (515 nm) ([1]; [H2O2] = 2.5 mM, 30 s): 425,024 and 405,551 and 398,309
- [1] ([1]; [H2O2] = 2.5 mM, 30 s): 0.6285 µM and 0.6785 µM and 0.6971 µM
- F-F0 (515 nm) ([1]; [H2O2] = 2.5 mM, 90 s): 539,467 and 612,814 and 630,136
- F-F0 (515 nm) ([1]; [H2O2] = 2.5 mM, 150 s): 601,940 and 657,981 and 671,946
- F-F0 (515 nm) ([1]; [H2O2] = 2.5 mM, 210 s): 627,168 and 666,435 and 680,181
- F-F0 (515 nm) ([1]; [H2O2] = 2.5 mM, 270 s): 636,230 and 665,190 and 679,366
- F-F0 (515 nm) ([1]; [H2O2] = 2.5 mM, 330 s): 638,753 and 666,173 and 674,138
- F-F0 (515 nm) ([1]; [H2O2] = 2.5 mM, 390 s): 641,141 and 663,899 and 664,993
- F-F0 (515 nm) ([1]; [H2O2] = 2.5 mM, 450 s): 640,270 and 661,893 and 664,416
- F-F0 (515 nm) ([1]; [H2O2] = 2.5 mM, 510 s): 639,383 and 659,509 and 664,003
- F-F0 (515 nm) ([1]; [H2O2] = 2.5 mM, 570 s): 637,346 and 658,746 and 663,104
- F-F0 (515 nm) ([1]; [H2O2] = 2.5 mM, 630 s): 637,422 and 656,826 and 661,222
- F-F0 (515 nm) ([1]; [H2O2] = 2.5 mM, 690 s): 636,174 and 654,911 and 659,002
- F-F0 (515 nm) ([1]; [H2O2] = 2.5 mM, 750 s): 634,294 and 654,494 and 657,410
- F-F0 (515 nm) ([1]; [H2O2] = 2.5 mM, 810 s): 631,953 and 653,606 and 654,988
- F-F0 (515 nm) ([1]; [H2O2] = 2.5 mM, 870 s): 631,346 and 651,140 and 655,338
- fluorescence dependence on H2O2 concentration [2]: increased linearly with H2O2 concentration
- reaction with NO2^− [3]: did not react
- Fluorescence ([3]; 0 μM NO2^− or H2O2, pH 7, 25° C.): 24,359 and 26,870 and 26,226
- Fluorescence ([3]; 0.1 μM H2O2): 58,172 and 52,104 and 52,249
- Fluorescence ([3]; 0.1 μM NO2^−): 31,075 and 36,429 and 27,504
- Fluorescence ([3]; 1 μM H2O2): 266,770 and 242,313 and 222,834
- Fluorescence ([3]; 1 μM NO2^−): 26,768 and 31,470 and 33,004
- half-life ([4]; DMSO-d6 solution, read-out: half-life of cis-trans isomerization of the enol ether (converted)): 60 days
- acrolein present (oxidative decomposition) ([4]; [D6]DMSO, up to 60 days): less than 10%
- time of fluorescence peak after the addition of ionomycin (RAW cells): 48 s
- time to significant response after the addition of ionomycin (RAW cells; 0.5 μM 1, ionomycin 10 μM): ≤ 30 s
- time of maximum fluorescence after tail snipping (zebrafish): 10 to 20 min
